Laboratory results reported in ChEMBL document CHEMBL1122023, “Potential antitumor agents. 36. Quantitative relationships between experimental antitumor activity, toxicity, and structure for the general class of 9-anilinoacridine antitumor agents” (J Med Chem, 1982).

assay: physchem
Description: Ionization constant (pKa)

| pKa | Structure (SMILES) |
| --- | --- |
| 6.79 | COc1cc(NS(C)(=O)=O)ccc1Nc1c2ccc(Cl)cc2nc2c(OC)cccc12 |
| 7.22 | COc1cc(NS(C)(=O)=O)ccc1Nc1c2ccc(N=[N+]=[N-])cc2nc2c(C)cccc12 |
| 5.63 | COc1cc(NS(C)(=O)=O)ccc1Nc1c2ccccc2nc2ccc([N+](=O)[O-])cc12 |
| 6.17 | COc1cc(NS(C)(=O)=O)ccc1Nc1c2ccc(Br)cc2nc2cc(Br)ccc12 |
| 7.36 | COc1cc(NS(C)(=O)=O)ccc1Nc1c2ccccc2nc2cc(N)ccc12 |
| 7.39 | Cc1cc(NS(C)(=O)=O)ccc1Nc1c2ccccc2nc2c(C)cccc12 |
| 6.52 | COc1ccc2nc3cc(Cl)ccc3c(Nc3ccc(NS(C)(=O)=O)cc3OC)c2c1 |
| 6.71 | COc1cc(NS(C)(=O)=O)ccc1Nc1c2ccccc2nc2cccc(C)c12 |
| 7.46 | CCc1ccc2nc3ccccc3c(Nc3ccc(NS(C)(=O)=O)cc3OC)c2c1 |
| 6.34 | COc1cc(NS(C)(=O)=O)ccc1Nc1c2ccccc2nc2c(C(=O)NCCO)cccc12 |
| 4.98 | COc1cc(NS(C)(=O)=O)ccc1Nc1c2ccccc2nc2cccc([N+](=O)[O-])c12 |
| 6.71 | COc1cc(NS(C)(=O)=O)ccc1Nc1c2ccccc2nc2c(C)c(Cl)ccc12 |
| 6.74 | COc1cc(NS(C)(=O)=O)ccc1Nc1c2ccc(I)cc2nc2c(OC)cccc12 |
| 7.01 | COc1cc(NS(C)(=O)=O)ccc1Nc1c2ccccc2nc2cc(Br)c(N)cc12 |
| 7.36 | CCCOc1cccc2c(Nc3ccc(NS(C)(=O)=O)cc3OC)c3ccccc3nc12 |
| 7.5 | COc1cc(NS(C)(=O)=O)ccc1Nc1c2ccccc2nc2cc(CCC(N)=O)ccc12 |
| 7.67 | COc1cc(NS(C)(=O)=O)ccc1Nc1c2ccc(C)cc2nc2c(C)cccc12 |
| 7.13 | CN(C)/N=N/c1ccc2c(Nc3ccc(NS(C)(=O)=O)cc3)c3ccccc3nc2c1 |

| pKa | Structure (SMILES) |
| --- | --- |
| 7.36 | Cc1cc(NS(C)(=O)=O)ccc1Nc1c2ccccc2nc2ccccc12 |
| 6.72 | COc1cc(NS(C)(=O)=O)ccc1Nc1c2ccc(I)cc2nc2ccc(N)cc12 |
| 9.5 | CNc1ccc2c(Nc3ccc(NS(C)(=O)=O)cc3OC)c3ccccc3nc2c1 |
| 5.94 | COc1cc(NS(C)(=O)=O)ccc1Nc1c2ccccc2nc2ccncc12 |
| 6.03 | COc1cc(NS(C)(=O)=O)ccc1Nc1c2ccc(C)cc2nc2cc([N+](=O)[O-])ccc12 |
| 6.69 | COc1cc(NS(C)(=O)=O)ccc1Nc1c2ccccc2nc2ccc(Cl)cc12 |
| 6.18 | COc1cc(NS(C)(=O)=O)ccc1Nc1c2ccc(Cl)cc2nc2cc(Cl)ccc12 |
| 7 | COc1cc(NS(C)(=O)=O)ccc1Nc1c2ccccc2nc2c(OCC(O)CO)cccc12 (stereo in doubt; 303) |
| 7.26 | COc1cc(NS(C)(=O)=O)ccc1Nc1c2ccccc2nc2cc(N=[N+]=[N-])ccc12 |
| 5.68 | COc1cc(NS(C)(=O)=O)ccc1Nc1c2ccc([N+](=O)[O-])cc2nc2c(OC)cccc12 |
| 9.88 | COc1cc(NS(C)(=O)=O)ccc1Nc1c2ccc(N)cc2nc2c(C)cccc12 |
| 7.34 | CCCCOc1cccc2c(Nc3ccc(NS(C)(=O)=O)cc3OC)c3ccccc3nc12 |
| 7.64 | COc1cc(NS(C)(=O)=O)ccc1Nc1c2ccccc2nc2cc(C(C)(C)C)ccc12 |
| 7.77 | COc1cc(NS(C)(=O)=O)ccc1Nc1c2ccccc2nc2cc(NC(C)=O)ccc12 |
| 5.87 | COc1cc(NS(C)(=O)=O)ccc1Nc1c2ccccc2nc2cc(S(C)(=O)=O)ccc12 |
| 7.65 | COc1cc(NS(C)(=O)=O)ccc1Nc1c2ccccc2nc2c(C)c(C)ccc12 |
| 7.19 | COc1cc(NS(C)(=O)=O)ccc1Nc1c2ccccc2nc2cccnc12 |
| 6.56 | COc1cc(NS(C)(=O)=O)ccc1Nc1c2ccccc2nc2cc(C(F)(F)F)c(N)cc12 |

Second part, the molecule before the results:

| Structure (SMILES) | pKa |
| --- | --- |
| CCc1cccc2c(Nc3ccc(NS(C)(=O)=O)cc3)c3ccccc3nc12 | 7.14 |
| COc1ccccc1Nc1c2ccccc2nc2ccc(C(C)C)c(NS(C)(=O)=O)c12 | 7.4 |
| COc1cc(NS(C)(=O)=O)ccc1Nc1c2ccc([N+](=O)[O-])cc2nc2cc([N+](=O)[O-])ccc12 | 3.82 |
| COc1cc(NS(C)(=O)=O)ccc1N=c1c2ccccc2[nH]c2ccc(C(C)(C)C)cc12 | 7.38 |
| CS(=O)(=O)Nc1ccc(Nc2c3ccccc3nc3c(CO)cccc23)cc1 | 6.68 |
| CS(=O)(=O)Nc1ccc(Nc2c3ccccc3nc3cc(Cl)c(N)cc23)cc1 | 6.71 |
| COc1cc(NS(C)(=O)=O)ccc1Nc1c2cccc(OC)c2nc2c(OC)cccc12 | 6.9 |
| COc1cc(NS(C)(=O)=O)ccc1Nc1c2ccc(I)cc2nc2c(OCC(O)CO)cccc12 (stereo not drawn) | 6.7 |
| COc1ccc2[nH]c3ccccc3c(=Nc3ccc(NS(C)(=O)=O)cc3OC)c2c1 | 7.1 |
| CS(=O)(=O)Nc1ccc(Nc2c3ccc(Cl)cc3nc3ccc(N)cc23)cc1 | 6.56 |
| CCCC(=O)Nc1ccc2c(Nc3ccc(NS(C)(=O)=O)cc3)c3ccccc3nc2c1 | 7.37 |
| COS(=O)(=O)Nc1ccc(Nc2c3ccccc3nc3cc(Cl)ccc23)cc1 | 6.57 |
| CS(=O)(=O)Nc1ccc(Nc2c3ccccc3nc3ccccc23)cc1[N+](=O)[O-] | 5.42 |
| Cc1ccc2c(Nc3ccc(NS(C)(=O)=O)cc3)c3cccc(C)c3nc2c1 | 7.46 |
| COc1cc(NS(C)(=O)=O)ccc1N=c1c2ccccc2[nH]c2ccc(C(N)=O)cc12 | 6.59 |
| CS(=O)(=O)Nc1ccc(NS(C)(=O)=O)c(Nc2c3ccccc3nc3ccccc23)c1 | 6.02 |
| COc1cc(NS(C)(=O)=O)ccc1Nc1c2ccccc2nc2c(OC3OC(CO)C(O)C(O)C3NC(C)=O)cccc12 (stereo not drawn) | 6.35 |
| CC(=O)Nc1ccc2c(Nc3ccc(NS(C)(=O)=O)cc3)c3ccc(NC(C)=O)cc3nc2c1 | 7.55 |
| CCC(=O)Nc1ccc2c(Nc3ccc(NS(C)(=O)=O)cc3)c3ccccc3nc2c1 | 7.35 |
| COc1cc(NS(=O)(=O)OC)ccc1Nc1c2ccccc2nc2c(CCC(N)=O)cccc12 | 7.15 |
| O=[N+]([O-])c1ccc2nc3ccccc3c(Nc3ccccc3)c2c1 | 6.26 |
| COc1cc(NS(C)(=O)=O)ccc1Nc1c2cccc(C)c2nc2c(C)cccc12 | 6.91 |
| CCCNc1ccc(Nc2c3ccccc3nc3ccccc23)cc1 | 8.24 |
| CN(C)c1ccc2nc3ccccc3c(Nc3ccc(NS(C)(=O)=O)cc3)c2c1 | 7.27 |
| CS(=O)(=O)Nc1ccc(Nc2c3ccccc3nc3cc(F)ccc23)cc1 | 6.77 |
| Cc1ccc2c(Nc3ccc(NS(C)(=O)=O)cc3)c3ccc([N+](=O)[O-])cc3nc2c1 | 5.81 |
| COc1ccc2c(Nc3ccc(NS(C)(=O)=O)cc3)c3ccc(Cl)cc3nc2c1 | 6.91 |
